Measured values published in ChEMBL document CHEMBL1133785, “Design, synthesis, and biological evaluation of HIV/FIV protease inhibitors incorporating a conformationally constrained macrocycle with a small P3' residue” (Bioorg Med Chem Lett, 2001).
Starred links: 1 amine or outer side, 2 acyl side, 3 side chain; linkers in the order of their positions; H or OH if unused. Non-standard residues stand in square brackets, D forms with d. Residues, ends and D or L forms follow the SMILES beside them. β3hPhe(2R-OH) = O=C([C@H](O)[C@H](Cc1ccccc1)N[*:1])[*:2]

How the values were obtained:
[1] = molecular target: T1, Human immunodeficiency virus type 1 protease (Human immunodeficiency virus 1, UniProt Q72874, G48V); experiment: Inhibitory concentration against drug-resistant HIV(G48V) mutant protease
[2] = molecular target: T2, Human immunodeficiency virus type 1 protease (Human immunodeficiency virus 1, UniProt Q72874, V82F); experiment: Inhibitory concentration against drug-resistant HIV(V82F) mutant protease
[3] = test system: Feline immunodeficiency virus; experiment: Inhibitory concentration against Feline immunodeficiency virus (FIV) protease; type: functional
[4] = molecular target: Human immunodeficiency virus type 1 protease (Human immunodeficiency virus 1, UniProt Q72874, V82A); experiment: Inhibitory concentration against TL3-resistant HIV(V82A) mutant
[5] = molecular target: T3, Human immunodeficiency virus type 1 protease (Human immunodeficiency virus 1, UniProt Q72874, F53L); experiment: Inhibitory concentration against TL3-resistant HIV(F53L) mutant protease; conditions: pooled result: one value given for 5 cell lines, strains, targets or settings
[6] = molecular target: T4, Human immunodeficiency virus type 1 protease (Human immunodeficiency virus 1, UniProt Q72874); experiment: Inhibitory concentration against human immunodeficiency virus (HIV) protease
[7] = molecular target: T4, Human immunodeficiency virus type 1 protease; experiment: Inhibitory concentration against wild-type human immunodeficiency virus (HIV-WT) protease
[8] = test system: Feline immunodeficiency virus; experiment: Inhibitory concentration against wild-type feline immunodeficiency virus (FIV-WT) protease at a concentration of 200 uM; type: functional
[9] = test system: Feline immunodeficiency virus; experiment: Inhibitory concentration against wild-type feline immunodeficiency virus (FIV-WT) protease; type: functional
[10] = molecular target: T4, Human immunodeficiency virus type 1 protease; experiment: Inhibitory concentration against TL3-resistant HIV(L241) mutant
[11] = molecular target: T4, Human immunodeficiency virus type 1 protease; experiment: Inhibitory concentration against TL3-resistant HIV(V771) mutant
[12] = molecular target: Human immunodeficiency virus type 1 protease (Human immunodeficiency virus 1, UniProt Q72874, L63P); experiment: Inhibitory concentration against TL3-resistant HIV(L63P) mutant
[13] = molecular target: T4, Human immunodeficiency virus type 1 protease; experiment: Inhibitory concentration against TL3-resistant HIV(M461) mutant
[14] = molecular target: T1, Human immunodeficiency virus type 1 protease; experiment: Inhibitory concentration against drug-resistant HIV(G48V) mutant
[15] = molecular target: T3, Human immunodeficiency virus type 1 protease; experiment: Inhibitory concentration against TL3-resistant HIV(F53L) mutant
[16] = molecular target: T2, Human immunodeficiency virus type 1 protease; experiment: Inhibitory concentration against drug-resistant HIV(V82F) mutant

Work on `CC(=O)N[C@@H](Cc1c[nH]c2ccccc12)C(=O)N[C@H](C(=O)N[C@@H](Cc1ccccc1)[C@@H](O)C(=O)N[C@H]1Cc2ccc(cc2)OCCCNC(=O)[C@H](C(C)C)NC1=O)C(C)C` yielded an IC50 [1] of 71 nM, an IC50 [2] of 30 nM and an IC50 [3] of 49 nM. For the same molecule, the IC50 [4] was 10 nM, the IC50 [5] was 49 nM and the IC50 [6] was 10 nM.

`COC(=O)[C@H](O)[C@H](Cc1ccccc1)NC(=O)[C@@H](NC(=O)[C@H](Cc1ccc(O)cc1)NC(C)=O)C(C)C` gave an IC50 [7] of 71000 nM and an inhibition at 200 µM [8] of 32%.

With `COC(=O)[C@H](O)[C@H](Cc1ccccc1)NC(=O)[C@@H](NC(=O)[C@H](Cc1ccccc1)NC(C)=O)C(C)C` the IC50 [7] was 113000 nM and the inhibition at 200 µM [8] was 24%.

In the case of `CC(C)[C@@H]1NC(=O)[C@@H](NC(=O)C(=O)C(Cc2ccccc2)NC(=O)OC(C)(C)C)Cc2ccc(cc2)OCCCNC1=O` (stereo partly specified), the IC50 [7] is reported as 13 nM and the IC50 [9] is reported as 4000 nM.

Molecule `CC(=O)N[C@@H](Cc1ccccc1)C(=O)N[C@H](C(=O)N[C@@H](Cc1ccccc1)[C@@H](O)C(=O)N[C@H]1Cc2ccc(cc2)OCCCNC(=O)[C@H](C(C)C)NC1=O)C(C)C` has an IC50 [1] of 94 nM, an IC50 [2] of 32 nM and an IC50 [3] of 35 nM. For the same molecule, the IC50 [4] was 12 nM, the IC50 [5] was 79 nM and the IC50 [6] was 7 nM.

With `COC(=O)[C@H](O)[C@H](Cc1ccccc1)NC(=O)[C@@H](NC(=O)[C@H](Cc1c[nH]c2ccccc12)NC(C)=O)C(C)C` the IC50 [7] was 14000 nM and the IC50 [9] was 66000 nM.

For `CC(C)[C@@H]1NC(=O)[C@@H](NC(=O)[C@@H](O)[C@H](Cc2ccccc2)NC(=O)OC(C)(C)C)Cc2ccc(cc2)OCCCNC1=O`, the IC50 [7] was 100 nM and the IC50 [9] was 46000 nM.

Work on `CC(C)[C@@H]1NC(=O)[C@@H](NC(=O)[C@H](O)[C@H](Cc2ccccc2)NC(=O)OC(C)(C)C)Cc2ccc(cc2)OCCCNC1=O` yielded an IC50 [7] of 630 nM and an inhibition at 200 µM [8] of 43%.

In the case of `CC(=O)N[C@@H](Cc1ccc(O)cc1)C(=O)N[C@H](C(=O)N[C@@H](Cc1ccccc1)[C@@H](O)C(=O)N[C@H]1Cc2ccc(cc2)OCCCNC(=O)[C@H](C(C)C)NC1=O)C(C)C`, the IC50 [10] is reported as 70 nM, the IC50 [3] is reported as 27 nM and the IC50 [4] is reported as 11 nM. For the same molecule, the IC50 [11] was 70 nM, the IC50 [12] was 70 nM and the IC50 [13] was 70 nM. It also gave an IC50 [14] of 57 nM, an IC50 [15] of 70 nM and an IC50 [6] of 6 nM. For the same molecule, the IC50 [16] was 26 nM.

For `CC(=O)N[C@@H](Cc1ccc(O)cc1)C(=O)N[C@H](C(=O)N[C@@H](Cc1ccccc1)[C@@H](O)C(=O)N[C@@H](Cc1ccc(O)cc1)C(=O)N[C@H](C(N)=O)C(C)C)C(C)C` (Ac-YV[β3hPhe(2R-OH)]YV-NH2), the IC50 [7] was 212 nM and the IC50 [9] was 560 nM.
